{
  "source": "patent US11833181B1",
  "about": "“Method of treating or preventing Alzheimer's Disease” (KING FAISAL UNIVERSITY, priority 2023, dated 2023)",
  "type_in_all_cases": "in vivo, rat",
  "key": {"[1]": {"test_system": "aluminum chloride (AlCl3)-induced Alzheimer-like disease in rats", "experiment": "Reduced glutathione (GSH) level in brain homogenate of AlCl3-induced Alzheimer-like rats", "method": "(§1) The neuroprotective effects of silymarin (SM) were tested on the hippocampal tissues of aluminum chloride (AlCl3)-induced Alzheimer's-like disease in rats using biochemical, histological, and immune-histochemical examination. For this experiment, 42 mature male albino rats were divided equally into 6 groups each of 7 rats as follows: • Group I: Rats injected with distilled water and served as the control group (non-induced); • Group II: Rats injected with AlCl3; • Group III: Rats injected with AlCl3, then silymarin; • Group IV: Rats injected with AlCl3, then collagen; • Group V: Rats injected with AlCl3 then silymarin nanoparticles; • Group VI: Rats injected with AlCl3 then silymarin+collagen nanoparticles.\n(§2) All of the experimental animals were sacrificed, and their brains dissected to take out the cortex section. The homogenates (10%, w/v) were then centrifuged at 10,000 rpm for 15 min and the supernatants were conserved at […] for subsequent biochemical evaluations to determine, oxidative stress markers, catalase activity, superoxide dismutase, glutathione peroxidase, glutathione reductase; and lipid peroxidation.\nTo determine homogenate reduced glutathione (GSH) level, GSH was allowed to react with 5,5′-dithio-bis-2-nitrobenzoic acid (DTNB) (equation below), known as Ellman's reagent, generating a yellow-colored 2-nitro-5-thiobenzoic acid product. DTNB+2 GSH Glutathione reductase 2-nitro-5-thiobenzoic acid\nThe reagents used included sulfosalicylic acid, 4%; phosphate buffer, 0.1 M, pH 7.4 and pH 8; DTNB, 10 mM, 19.8 mg in 10 ml phosphate buffer pH 8, and standard GSH, and 1 mg/dl (32.54 μM) in phosphate buffer pH 7.4.\nProteins in 0.1 ml of either homogenate supernatants (samples) were precipitated using 0.1 ml of 4% sulfosalicylic acid. The samples were kept at 4° C. for at least 1 hour and then subjected to centrifugation at 3000 rpm for 10 min at 4° C. The assay mixture contained 0.1 ml supernatant, 2.7 ml phosphate buffer (0.1 M, pH 7.4), and 0.2 ml DTNB in a total volume of 3 ml.\nThe standard and blank experiment was carried out as above using 0.1 ml of standard GSH and distilled water, respectively instead of samples. The absorbance of the developed yellow color of samples and standard was read against blank at 412 nm.\nThe tissue contents of GSH were estimated using the following equation; GSH level (μmol/g protein)=[As Ast×Standard concentration×10]/total proteins, • where; • As: Absorbance of the sample (homogenate); • Ast: Absorbance of standard; and • 10: The tissue dilution.\n(§3) Male albino rats were pretreated with one dose of the nano-formulation of 200 mg/kg/day for 15 days orally. The animals were then evaluated for neurobehavioral, infarct analysis, biochemical, histopathological studies."}, "[2]": {"test_system": "aluminum chloride (AlCl3)-induced Alzheimer-like disease in rats", "experiment": "Lipid peroxidation (TBARS) in brain homogenate of AlCl3-induced Alzheimer-like rats", "method": "as §1, §2\nLipid peroxidation was determined by measuring the thiobarbituric reactive substances (TBARS) in the homogenate where: Thiobarbituric acid+malondialdehyde Colored product+2 H2O Malondialdehyde (MDA), a major secondary product of lipid peroxidation (LPO) reacts with thiobarbituric acid (TBA), producing pink color adducts on heating. This reaction has been widely adopted as a sensitive method for lipid peroxidation that represents a major indicator of oxidative stress.\nIn four test tubes, homogenate supernatant (test) or water (blank) was added to 1 ml TCA and mixed well, then the solutions were centrifuged at 3000 rpm for 10 min. One milliliter of the supernatant of each of the previous four test tubes was added to 0.5 ml of TBA and heated for 30 min at 90° C. then cooled. The absorbance of samples (As) was read at 532 nm against blank.\nThe concentration of proteins was estimated. The levels of TBARS were calculated with the following equations:\nFor tissue homogenate: As: TBARS level (μmol/g protein)=(0.156×total protein×1000)×10, where; • As: absorbance of the sample (homogenate); • 0.156: molar extinction coefficient (μM−1 cm^−1); and • 10: the sample dilution factor.\nas §3"}, "[3]": {"test_system": "aluminum chloride (AlCl3)-induced Alzheimer-like disease in rats", "experiment": "Catalase activity in brain homogenate of AlCl3-induced Alzheimer-like rats", "method": "as §1, §2\nCatalase reacts with a known quantity of H2O2. The reaction is stopped after exactly one minute with a catalase inhibitor. In the presence of peroxidase (HRP), remaining H2O2 reacts with 3,5-Dichloro-2-hydroxybenzene sulfonic acid (DHBS) and 4-aminophenazone (AAP) to form a chromophore with a color intensity inversely proportional to the amount of catalase in the original sample.\nThe reagents included: • buffer (Phosphate buffer, pH 7.0 Detergent)−100 mM/L; • H2O2 (substrate and standard) (Dilute 1000 times)−500 mM/L • Chromogen—Inhibitor— • Enzyme: Peroxidase 4-Aminoantipyrine Preservative->2000/L 2 mM/L.\nas §3"}, "[4]": {"test_system": "aluminum chloride (AlCl3)-induced Alzheimer-like disease in rats", "experiment": "Nitric oxide (nitrite) level in brain homogenate of AlCl3-induced Alzheimer-like rats", "method": "as §1, §2\nNitric oxide was rapidly oxidized to nitrite (NO^2−) and/or nitrate (NO^3−) by oxygen. In this method, nitrite was first treated with a diazotizing reagent, e.g., sulfanilamide (SA), in acidic media to form a transient diazonium salt. This intermediate was then allowed to react with a coupling reagent, N-naphthyl-ethylene diamine, to form a stable azo compound. The intense purple color of the product allows nitrite assay with high sensitivity and can be used to measure nitrite concentration as low as […]. The absorbance of this adduct at 540 nm is linearly proportional to the nitrite concentration in the sample.\nThe reagents included sulphanilamide (10 mM), N-(1-naphthyl) ethylenediamine, (1 mM), and standard sodium nitrite solution (100 μM). To four test tubes, each containing 1 ml sulphanilamide, 100 μl of either homogenate (test), standard solution (standard), or distilled water (blank) were added. The four test tubes were incubated for 5 minutes at room temperature. Then, 100 μl N-(1-naphthyl) ethylene diamine was added to all tubes and allowed to stand for 20 min at room temperature. The absorbance of the test and standard was read at 540 nm against blank.\nThe homogenate NO level was calculated according to the following equation: NO level (μM/g protein)=[As Ast×Standard concentration×10]/total proteins, where; • As: Absorbance of the sample (homogenate); • Ast: Absorbance of standard; and • 10: The sample dilution factor.\nas §3"}, "[5]": {"conditions": "Table 1, single animal samples (code = group G + animal H), brain homogenate supernatant"}, "[6]": {"conditions": "Table 2, value ± spread per treatment group, Example 5, nano-formulation 200 mg/kg/day for 15 days orally"}},
  "note": "“And” between values parts separate entries of the source, which are not always exact repeats. Identical values can stand only once. Marks after values point to notes of the source that are not given here.",
  "data": [
    {"molecule": "[Cl][Al]([Cl])[Cl]", "note": "[AlCl3, aluminum chloride]", "values": [
      {"measurement": "GSH", "setting": "[1]; [5]", "value": "12.06 μmol/g protein and 14.51 μmol/g protein"},
      {"measurement": "GSH", "setting": "[1]; [6]", "value": "19.03 ± 3.89^bc"},
      {"measurement": "TBARS", "setting": "[2]; [5]", "value": "1.54 μmol/g protein and 1.48 μmol/g protein"},
      {"measurement": "TBARS", "setting": "[2]; [6]", "value": "0.68 ± 0.04^bc"},
      {"measurement": "Catalase", "setting": "[3]; [5]", "value": "54 U/g and 65 U/g"},
      {"measurement": "Catalase", "setting": "[3]; [6]", "value": "84.33 ± 17.27^bc"},
      {"measurement": "NO", "setting": "[4]; [5]", "value": "61.67 μM/g protein and 65.00 μM/g protein"},
      {"measurement": "NO", "setting": "[4]; [6]", "value": "36.18 ± 0.58^bc"}
    ]},
    {"molecule": "collagen", "values": [
      {"measurement": "GSH", "setting": "[1]; [5]", "value": "24.78 μmol/g protein and 11.61 μmol/g protein"},
      {"measurement": "GSH", "setting": "[1]; [6]", "value": "14.44 ± 0.58^b"},
      {"measurement": "TBARS", "setting": "[2]; [5]", "value": "0.74 μmol/g protein and 0.60 μmol/g protein"},
      {"measurement": "TBARS", "setting": "[2]; [6]", "value": "0.71 ± 0.01^bc"},
      {"measurement": "Catalase", "setting": "[3]; [5]", "value": "111 U/g and 52 U/g"},
      {"measurement": "Catalase", "setting": "[3]; [6]", "value": "62.33 ± 1.45^b"},
      {"measurement": "NO", "setting": "[4]; [5]", "value": "37.22 μM/g protein and 36.11 μM/g protein"},
      {"measurement": "NO", "setting": "[4]; [6]", "value": "34.91 ± 0.83^bc"}
    ]}
  ]
}
